Data from patent US20050271676A1, “Inducing cellular immune responses to human immunodeficiency virus-1 using peptide and nucleic acid compositions” (Epimmune Inc., priority 1993, published 2005).
No end group written: not given here.

Legend:
HLA-A*3101 = HLA-A*3101 (Homo sapiens, UniProt P04439, A270S/D185E/E176V/E277Q/F33T/G231S/G80R/H175R/I121M/I218V/I322F/K168Q/L300P/L318F/M331R/P217A/Q94H/R138Q/T323A/T345S/T97I/V358M); experiment: purified HLA class I binding assay, A*3101
HLA-A*0301 = target: T1, HLA-A*0301 (Homo sapiens, UniProt P04439); experiment: purified HLA class I binding assay, A*0301
T1 construct: endogenous in cells; host or cells: GM3107

HLA-A*1101 = HLA-A*1101 (Homo sapiens, UniProt P04439, A114D/D185E/E176A/F33Y/L180Q/S129P/T187R); experiment: purified HLA class I binding assay, A*1101
HLA-A*3301 = HLA-A*3301 (Homo sapiens, UniProt P04439, A270S/D185E/E176V/E277Q/E87N/F33T/G231S/H175R/I121M/I218V/I322F/K168Q/K210R/L300P/L318F/M331R/P217A/Q86R/Q94H/R138Q/T323A/T345S/T97I/V358M/Y195H); experiment: purified HLA class I binding assay, A*3301
HLA-DRB1*1201 (DR5w12) = target: T2, HLA-DRB1*1201 (DR5w12) (Homo sapiens, UniProt P01903+P01911, A100R/A169T/D57E/D86V/F55L/H45Y/K41T/L162R/M171V/P40S/Q125H/Q178H/Q39Y/Q99D/R42G/S66L/T262R/V114A/V67L/W38E/Y59H/Y61H/Y89S); experiment: purified HLA class II binding assay, DRB1*1201 (DR5w12); details: for DR5w12 binding: HIV DR super motif peptides, unit not given
T2 construct: endogenous in cells

HLA-DRB5*0101 (DR2w2β2) = target: T3, HLA-DRB5*0101 (DR2w2β2) (Homo sapiens, UniProt P01903+Q30154); experiment: biochemical; assay type: binding
T3 construct: expressed in transfected cells

HLA-DRB1*1101 (DR5w11) = target: T4, HLA-DRB1*1101 (DR5w11) (Homo sapiens, UniProt P01903+P01911, A100R/A169T/A87E/I96F/K41T/L162R/M171V/P40S/Q125H/Q178H/Q39Y/Q99D/R42S/S66Y/T262R/V115G/W38E); experiment: biochemical; assay type: binding
T4 construct: endogenous in cells
T4 sequence (P01903 26-254, other chains not shown): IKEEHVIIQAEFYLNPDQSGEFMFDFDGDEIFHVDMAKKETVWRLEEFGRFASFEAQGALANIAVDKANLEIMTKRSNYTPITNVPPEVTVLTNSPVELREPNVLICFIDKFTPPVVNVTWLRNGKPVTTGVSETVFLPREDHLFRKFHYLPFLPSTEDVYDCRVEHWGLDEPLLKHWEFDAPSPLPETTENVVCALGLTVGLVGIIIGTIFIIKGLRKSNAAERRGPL

HLA-DRB1*1302 (DR6w19) = HLA-DRB1*1302 (DR6w19) (Homo sapiens, UniProt P01903+P01911, A100E/A169T/K41T/L162R/M171V/P40S/Q125H/Q178H/Q39Y/Q99D/R42S/S66N/T262R/V115G/W38E/Y61H); experiment: purified HLA class II binding assay, DRB1*1302 (DR6w19); details: for DR6w19 binding: HIV DR super motif peptides, unit not given
HLA-DRB1*1501 (DR2w2β1) = target: T5, HLA-DRB1*1501 (DR2w2β1) (Homo sapiens, UniProt P01903+P01911); experiment: purified HLA class II binding assay, DRB1*1501 (DR2w2β1); details: for DR2 wβ1 binding: HIV DR super motif peptides, unit not given
T5 construct: expressed in transfected cells

HLA-DRB1*0301 (DR3) = target: T6, HLA-DRB1*0301 (DR3) (Homo sapiens, UniProt P01903+P01911, A100K/A102G/A103R/A169T/F55Y/I96L/K41T/L162R/M171V/P40S/Q125H/Q178H/Q39Y/R42S/S66N/T106N/T262R/W38E/Y61H); experiment: purified HLA class II binding assay, DRB1*0301 (DR3), pH 4.5; details: for DR3 binding: HIV DR super motif peptides, unit not given
T6 construct: endogenous in cells; host or cells: MAT
T6 sequence (P01903 26-254 partner, other chains not shown): as the sequence (P01903 26-254, other chains not shown) above

HLA-DRB1*0901 (DR9) = target: T7, HLA-DRB1*0901 (DR9) (Homo sapiens, UniProt P01903+P01911, A100R/A103E/D57H/D86V/F55Y/F60I/F76Y/I96F/K127E/L162R/M171V/P40D/Q125H/Q99R/R33Q/R42F/S133A/S66N/T210M/V115G/W38K/Y107V/Y59G/Y89S); experiment: biochemical; assay type: binding
T7 construct: endogenous in cells

HLA-DRB1*0802 (DR8w2) = target: T8, HLA-DRB1*0802 (DR8w2) (Homo sapiens, UniProt P01903+P01911, A100R/A103L/A169T/F76Y/H45Y/I96F/K41T/L162R/M171V/P40S/Q125H/Q178H/Q39Y/Q99D/R218S/R42G/S66Y/V115G/W38E); experiment: biochemical; assay type: binding
T8 construct: endogenous in cells

HLA-DRB1*0701 (DR7) = target: T9, HLA-DRB1*0701 (DR7) (Homo sapiens, UniProt P01903+P01911, A100R/A102G/A103Q/D57E/D86V/E43K/F76Y/K127E/L162R/M171V/P40G/Q125H/Q99D/R33Q/R42Y/R54Q/S133A/S66F/T210M/V115G/Y107V/Y59L/Y89S); experiment: biochemical; assay type: binding
T9 construct: endogenous in cells; host or cells: Pitout

HLA-DRB1*0401 (DR4w4) = target: T10, HLA-DRB1*0401 (DR4w4) (Homo sapiens, UniProt P01903+P01911, A100K/A169T/F76Y/I96L/K127E/L162R/M171V/N62H/P40V/Q125Y/R42H/S133A/S149N/S66Y/V115G/V209L/W38E); experiment: purified HLA class II binding assay, DRB1*0401 (DR4w4); details: HIV DR super motif peptides; unit not given
T10 construct: endogenous in cells; host or cells: Preiss
T10 sequence (P01903 26-254 partner, other chains not shown): as the sequence (P01903 26-254, other chains not shown) above

HLA-A*0101 = HLA-A*0101 (Homo sapiens, UniProt P04439, A114D/A174V/A182V/D101N/D185E/E176A/E190D/L180R/Q94H/R68K/S129P/T187R/V100A/V91M/W191G); experiment: biochemical; assay type: binding
HLA-B*5401 = HLA-B*5401 (Homo sapiens, UniProt P01889, A329T/C349S/D138N/D201E/E176V/E187T/E204Q/E69G/I76V/K202T/L119W/R155S/R180L/S121T/S35A/S48A/V127L/V306I/V36M/Y140L); experiment: biochemical
HLA-A*6801 = HLA-A*6801 (Homo sapiens, UniProt P04439, A269V/D185E/E176V/E277Q/E87N/F33Y/G231S/I121M/I166T/I218V/L180W/L300P/L318F/N151K/P208A/P217A/Q86R/R169H/T345S); experiment: purified HLA class I binding assay, A*6801

Compound: CC[C@H](C)[C@H](NC(=O)[C@H](Cc1ccccc1)NC(=O)[C@@H](NC(=O)[C@H](C)N)C(C)C)C(=O)N[C@@H](Cc1c[nH]cn1)C(=O)N[C@@H](CC(N)=O)C(=O)N[C@@H](Cc1ccccc1)C(=O)N[C@@H](CCCCN)C(=O)N[C@@H](CCCNC(=N)N)C(=O)O [1193.03]
- IC50 (HLA-A*3101): 5.1 nM
- IC50 (HLA-A*0301): 64.7 nM
- IC50 (HLA-A*1101): 3.3 nM
- IC50 (HLA-A*3301): 107 nM

Compound: CC[C@H](C)[C@H](NC(=O)[C@H](C)N)C(=O)N[C@@H](Cc1ccccc1)C(=O)N[C@@H](CCC(N)=O)C(=O)N[C@@H](CO)C(=O)N[C@@H](CO)C(=O)N[C@@H](CCSC)C(=O)N[C@H](C(=O)N[C@@H](CCCCN)C(=O)O)[C@@H](C)O [Peptide 966.01]
- IC50 (HLA-A*3101): 12000 nM
- IC50 (HLA-A*0301): 10 nM
- IC50 (HLA-A*1101): 10 nM
- IC50 (HLA-A*3301): 96700 nM

Compound: CC[C@H](C)[C@H](NC(=O)CNC(=O)[C@H](CCCCN)NC(=O)[C@H](Cc1c[nH]cn1)NC(=O)[C@H](C)NC(=O)[C@@H]1CCCN1C(=O)[C@@H](NC(=O)[C@H](Cc1c[nH]c2ccccc12)NC(=O)[C@H](C)NC(=O)[C@H](CC(C)C)NC(=O)[C@H](Cc1ccc(O)cc1)NC(=O)[C@@H](NC(=O)[C@@H](N)CCCCN)C(C)C)C(C)C)C(=O)NCC(=O)NCC(=O)O [Peptide 1280.03]
- IC50 (HLA-DRB1*1201 (DR5w12)): 12600 nM
- IC50 (HLA-DRB5*0101 (DR2w2β2)): 24 nM
- IC50 (HLA-DRB1*1101 (DR5w11)): 71 nM
- IC50 (HLA-DRB1*1302 (DR6w19)): 2500 nM
- IC50 (HLA-DRB1*1501 (DR2w2β1)): 25 nM
- IC50 (HLA-DRB1*0301 (DR3)): > 20000 nM
- IC50 (HLA-DRB1*0901 (DR9)): 250 nM

Compound: ASGYIEAEVIPAFTG
- DR5w12 binding (HLA-DRB1*1201 (DR5w12)): −0.0045
- DR2w2β2 binding (HLA-DRB5*0101 (DR2w2β2)): −0.0021
- DR5w11 binding (HLA-DRB1*1101 (DR5w11)): 0.0020
- DR6w19 binding (HLA-DRB1*1302 (DR6w19)): 0.0400
- DR8w2 binding (HLA-DRB1*0802 (DR8w2)): −0.0003
- DR7 binding (HLA-DRB1*0701 (DR7)): 0.0710
- DR2 wβ1 binding (HLA-DRB1*1501 (DR2w2β1)): −0.0003
- DR3 binding (HLA-DRB1*0301 (DR3)): −0.0043
- DR4w4 binding (HLA-DRB1*0401 (DR4w4)): 0.2300
- DR9 binding (HLA-DRB1*0901 (DR9)): 0.0320

Compound: EVNIVTDSQY [Peptide 1.0431]
- IC50 (HLA-A*0101): 472 nM

Compound: IKKEKVYLA
- DR6w19 binding information (HLA-DRB1*1302 (DR6w19); Table XXb, HIV DR 3a motif peptides): −0.0003
- DR8w2 binding information (HLA-DRB1*0802 (DR8w2)): −0.0015
- DR7 binding information (HLA-DRB1*0701 (DR7)): −0.0005
- DR9 binding information (HLA-DRB1*0901 (DR9)): 0.0011

Compound: ILKEVYIIGVY
- A*0101 (binding information) (HLA-A*0101): 0.0017

Compound: IPIHYCAPA [1296.01]
- IC50 (HLA-B*5401): 3.7 nM

Compound: IVIWGKTPK [1193.0200]
- IC50 (HLA-A*3101): 18.2 nM
- IC50 (HLA-A*1101): 16.2 nM
- IC50 (HLA-A*3301): 96.7 nM

Compound: KIQNFRVYYR [1211.32]
- IC50 (HLA-A*3101): 2.7 nM
- IC50 (HLA-A*3301): 341 nM

Compound: KLAGRWPVK [1069.44]
- IC50 (HLA-A*3101): 500 nM
- IC50 (HLA-A*0301): 8.5 nM
- IC50 (HLA-A*6801): 80000 nM
- IC50 (HLA-A*3301): 72500 nM

Compound: LVAVIIVASGY
- A*0101 (binding affinity ratio) (HLA-A*0101): 0.0390
- A*0101 (binding information) (HLA-A*0101): 0.0390

Compound: NTPVFAIKK [1273.02]
- IC50 (HLA-A*3101): 30000 nM
- IC50 (HLA-A*1101): 100 nM
- IC50 (HLA-A*3301): 48300 nM

Compound: QHLLQLTVWGIKQLQ [Peptide 27.0297]
- IC50 (HLA-DRB5*0101 (DR2w2β2)): 690 nM
- IC50 (HLA-DRB1*1302 (DR6w19)): 350 nM
- IC50 (HLA-DRB1*0802 (DR8w2)): 907 nM
- IC50 (HLA-DRB1*0701 (DR7)): 44 nM
- IC50 (HLA-DRB1*1501 (DR2w2β1)): 21 nM
- IC50 (HLA-DRB1*0301 (DR3)): > 20000 nM

Compound: QKEPPFLWMG
- A*0101 (binding affinity ratio) (HLA-A*0101): 0.0004

Compound: SPEVIFMFSALSEGA
- DR5w12 binding (HLA-DRB1*1201 (DR5w12)): −0.0045
- DR2w2β2 binding (HLA-DRB5*0101 (DR2w2β2)): 0.0034
- DR5w11 binding (HLA-DRB1*1101 (DR5w11)): 0.0075
- DR6w19 binding (HLA-DRB1*1302 (DR6w19)): 0.0007
- DR8w2 binding (HLA-DRB1*0802 (DR8w2)): 0.0130
- DR7 binding (HLA-DRB1*0701 (DR7)): −0.0007
- DR2 wβ1 binding (HLA-DRB1*1501 (DR2w2β1)): 0.0280
- DR3 binding (HLA-DRB1*0301 (DR3)): −0.0043
- DR4w4 binding (HLA-DRB1*0401 (DR4w4)): 0.1600
- DR9 binding (HLA-DRB1*0901 (DR9)): 0.0130

Compound: TIKIGGQLK [1273.05]
- IC50 (HLA-A*3101): 18000 nM
- IC50 (HLA-A*0301): 40.7 nM
- IC50 (HLA-A*3301): 36300 nM

Compound: TTLFCASDAK [1273.07]
- IC50 (HLA-A*3101): 9470 nM
- IC50 (HLA-A*0301): 120 nM
- IC50 (HLA-A*1101): 27.3 nM
- IC50 (HLA-A*3301): 14500 nM

Compound: VMIVWQVDR [Peptide 1273.08]
- IC50 (HLA-A*3101): 3.8 nM
- IC50 (HLA-A*1101): 273 nM
- IC50 (HLA-A*3301): 5.3 nM

Compound: VTVLDVGDAY [Peptide 1069.26]
- IC50 (HLA-A*0101): 439 nM
